Reference: patent US20080033005A1, “METHODS FOR THE TREATMENT OF MULTIPLE SCLEROSIS” (AVENTIS PHARMACEUTICALS INC., priority 2004, published 2008)

How the values were obtained:
mature oligodendrocytes = experiment: Oligodendrocyte toxicity assay, mature oligodendrocytes (OL), SIN-1, LDH release; type: cell-based, rat; conditions: compound 10 nm, 1 hour pretreatment, Sin-1 10 mM, LDH after 24 hours
Procedure: (§1) Primary rat oligodendrocyte progenitor cells were obtained from the cerebra of 2-3 day old postnatal rats (Sprague Dawley). The meninges were removed and tissue was mechanically dissociated. Cells were plated on T75 flasks and fed with DMEM+10% FBS.
(§2) Enriched OLPs were collected by mechanical separation from the astrocytic monolayer and were expanded in serum free media (SFM) supplemented with the mitogens, PDGF-AA (10 ng/ml) and FGF-2 (10 ng/ml).
To generate mature oligodendrocytes, progenitor cells were switched to SFM supplemented with IGF-1 (10 ng/ml) 24 hours after plating and cells were grown under these conditions for 7 days prior to experimental assays.
(§3) Cells were plated in 96-well plates, 10,000 per well. Medium was changed to fresh medium and cells were pretreated with compounds for 1 hour. Toxins were added to give the following final concentrations: • Sin-1 10 mM • Pyrogallol 500 μM • C2 ceramide 100 μM • Camptothecin 10 μM
(§4) After 24 hours, medium was removed and assayed for LDH activity using the Promega cytotox 96 kit (catalog# G1780). Results were calculated as percent protection against toxin-induced toxicity.

[1] = system: Primary rat oligodendrocyte progenitor cells; experiment: Oligodendrocyte toxicity assay, progenitor cells (OLP), SIN-1, LDH release; type: cell-based; conditions: compound 10 nm, 1 hour pretreatment; Sin-1 10 mM; LDH after 24 hours; oligodendrocyte progenitors
Procedure: as §1, §2, §3, §4

SK-N-SH cells = conditions: U-0126 given with the tested compounds
Procedure: Cells from a human neuroblastoma cell line, SK-N-SH cells, were plated at 50,000 cells/well in Costar Biocoat 96-well poly-D-lysine coated plates in EMEM (Minimum Essential Medium Eagle with Earle's salts) containing penicillin/streptomycin, L-glutamine, sodium pyruvate, non-essential amino acids and sodium bicarbonate. Cells were grown overnight in a 37° C. incubator under 5% CO2. The next day, the medium was removed and replaced with fresh medium. Cells were pretreated with Serms for 1 hour, and SIN-1 (3-morpholinosydnonimine, which produces peroxynitrite) was added to give a final concentration of 2 or 10 mM. After 24 hours, the medium was removed and assayed for LDH activity using the Promega cytotox 96 kit (catalog# G1780). Results were calculated as percent protection against SIN-1 toxicity.

| SMILES | % Protection (SIN-1*) OL 10 nm (mature oligodendrocytes) [%] | % Protection (SIN-1*) OLP 10 nm [1] [%] | effect of MEK inhibitor on the neuroprotection by the compounds (SK-N-SH cells) |
| --- | --- | --- | --- |
| COc1ccc(-c2sc3cc(O)ccc3c2Oc2ccc(OCCN3CCCCC3)cc2)cc1 [Arzoxifen] | 8.237 | 1.485 |  |
| N#CC(=C(/N)Sc1ccccc1N)/C(C#N)=C(\N)Sc1ccccc1N [U-0126] |  |  | inhibition of the neuroprotection |
